From patent US8802597B2, “Herbicidal pyrimidines” (E I du Pont de Nemours and Company, priority 2003, dated 2014)
Like-named read-outs stand apart in the source and are kept apart here.

Legend:
Assay type in all cases: in vivo
[1] = test system: eastern black nightshade (Solanum ptycanthum); assay: Test C pre/postemergence; conditions: Preemergence
How it was run: (§1)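 Applications: preemergence onto seeded soil and postemergence onto 1- to 4-leaf seedlings, compound carried in non-phytotoxic solvent plus surfactant. Kept in greenhouse 12 to 14 days. Scored visually relative to untreated controls, 0 (no effect) to 100 (complete control).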

[2] = test system: morningglory (Ipomoea coccinea); assay: Test C pre/postemergence; conditions: for pest or weed control at 250 g/ha: 250 g ai/ha; for pest or weed control at 500 g/ha: 500 g ai/ha
How it was run: as §1

[3] = test system: woolly cupgrass (Eriochloa villosa); assay: Test C pre/postemergence; conditions: for pest or weed control at 250 g/ha: 250 g ai/ha; for pest or weed control at 500 g/ha: 500 g ai/ha
How it was run: as §1

[4] = test system: chickweed (Stellaria media); assay: Test C postemergence
How it was run: as §1

[5] = 31 g ai/ha, scale 0 to 100, 0 no effect, 100 complete control
[6] = 62 g ai/ha, scale 0 to 100, 0 no effect, 100 complete control
[7] = Postemergence, 62 g ai/ha, scale 0 to 100 (0 no effect, 100 complete control)
[8] = Postemergence, 125 g ai/ha, scale 0 to 100 (0 no effect, 100 complete control)
[9] = Preemergence, 16 g ai/ha, scale 0 to 100, 0 no effect, 100 complete control
[10] = Preemergence, 31 g ai/ha, scale 0 to 100, 0 no effect, 100 complete control
[11] = Preemergence, 62 g ai/ha, scale 0 to 100, 0 no effect, 100 complete control
[12] = Preemergence, 125 g ai/ha, scale 0 to 100
[13] = Ipomoea, post-emergence, Postemergence, 125 g ai/ha, scale 0 to 100 (0 no effect, 100 complete control), read-out: Morningglory plant response rating
[14] = Eriochloa villosa, post-emergence, Postemergence, 125 g ai/ha, scale 0 to 100 (0 no effect, 100 complete control), read-out: Cupgrass, Woolly plant response rating
[15] = Ipomoea, post-emergence, Postemergence, scale 0 to 100, read-out: Plant response rating, Morningglory
[16] = Ipomoea, pre-emergence, Preemergence, scale 0 to 100, read-out: Plant response rating, Morningglory
[17] = Eriochloa villosa, post-emergence, Postemergence, scale 0 to 100, read-out: Plant response rating, Cupgrass, Woolly
[18] = Eriochloa villosa, pre-emergence, Preemergence, scale 0 to 100, read-out: Plant response rating, Cupgrass, Woolly

For `COC(=O)c1nc(C2CC2)nc(N=CN(C)C)c1Br` [Compound 19], which “Plant response rating, Nightshade” value ([1]; 16 g ai/ha, scale 0 to 100, 0 no effect, 100 complete control) is on record?
The value was 0.

And the “Plant response rating, Nightshade” value [1, 5]?
The value was 40.

What about the “Plant response rating, Nightshade” value [1, 6] of the same compound?
Its value is 100.

What about the “Plant response rating, Nightshade” value ([1]; 125 g ai/ha, scale 0 to 100) of the same compound?
Its value is 100.

What about the “Plant response rating (scale of 0 to 100), Morningglory” value ([2]; Postemergence, 31 g ai/ha) of the same compound?
The value was 55.

What about the “Morningglory plant response rating” value [2, 7] of the same compound?
The value was 80.

What about the “Morningglory plant response rating” value [2, 8] of the same compound?
Its value is 85.

And the “Plant response rating, Morningglory” value [2, 9]?
Its value is 10.

What about the “Plant response rating, Morningglory” value [2, 10] of the same compound?
The value was 10.

And the “Plant response rating, Morningglory” value [2, 11]?
The value was 90.

What about the “Plant response rating, Morningglory” value [2, 12] of the same compound?
Its value is 90.

And the “Plant response rating (scale of 0 to 100), Cupgrass, Woolly” value ([3]; Postemergence, 16 g ai/ha)?
The value was 0.

And the “Plant response rating (scale of 0 to 100), Cupgrass, Woolly” value ([3]; Postemergence, 31 g ai/ha)?
Its value is 25.

And the “Cupgrass, Woolly plant response rating” value [3, 7]?
Its value is 65.

What about the “Cupgrass, Woolly plant response rating” value [3, 8] of the same compound?
The value was 65.

And the “Plant response rating, Cupgrass, Woolly” value [3, 9]?
The value was 0.

What about the “Plant response rating, Cupgrass, Woolly” value [3, 10] of the same compound?
Its value is 0.

What about the “Plant response rating, Cupgrass, Woolly” value [3, 11] of the same compound?
Its value is 0.

And the “Plant response rating, Cupgrass, Woolly” value [3, 12]?
Its value is 0.

What about the “Plant response rating (scale of 0 to 100), Chickweed” value ([4]; 16 g ai/ha) of the same compound?
The value was 0.

What about the “Plant response rating (scale of 0 to 100), Chickweed” value ([4]; 31 g ai/ha) of the same compound?
Its value is 0.

And the “Chickweed plant response rating” value ([4]; 62 g ai/ha, scale 0 to 100 (0 no effect, 100 complete control))?
The value was 5.

What about the “Plant response rating, Chickweed” value ([4]; 125 g ai/ha, scale 0 to 100) of the same compound?
The value was 5.

Which “Plant response rating, Nightshade” value [1, 5] does the source give for `Nc1nc(C2CC2)nc(C(=O)O)c1Cl` [Compound 135, 6-amino-5-chloro-2-cyclopropyl-4-pyrimidinecarboxylic acid] here?
Its value is 30.

And the “Plant response rating, Nightshade” value [1, 6]?
The value was 35.

And the “Plant response rating, Nightshade” value ([1]; scale 0 to 100, 0 no effect, 100 complete control)?
The value was 50.

And the pest or weed control at 16 g/ha ([1]; Solanum, pre-emergence, 16 g ai/ha, scale 0 to 100, 0 no effect, 100 complete control, read-out: Plant response rating, Nightshade)?
Its pest or weed control at 16 g/ha is 0%.

And the pest or weed control at 16 g/ha ([2]; Ipomoea, post-emergence, Postemergence, 16 g ai/ha, read-out: Plant response rating (scale of 0 to 100), Morningglory)?
Its pest or weed control at 16 g/ha is 80%.

And the pest or weed control at 31 g/ha ([2]; Ipomoea, post-emergence, Postemergence, 31 g ai/ha, read-out: Plant response rating (scale of 0 to 100), Morningglory)?
Its pest or weed control at 31 g/ha is 90%.

What about the pest or weed control at 62 g/ha ([2]; Ipomoea, post-emergence, Postemergence, 62 g ai/ha, read-out: Plant response rating (scale of 0 to 100), Morningglory) of the same compound?
Its pest or weed control at 62 g/ha is 95%.

What about the pest or weed control at 125 g/ha [2, 13] of the same compound?
Its pest or weed control at 125 g/ha is 95%.

What about the “Plant response rating, Morningglory” value [2, 9] of the same compound?
The value was 85.

And the “Plant response rating, Morningglory” value [2, 10]?
Its value is 90.

And the “Plant response rating, Morningglory” value [2, 11]?
The value was 90.

And the “Plant response rating, Morningglory” value [2, 12]?
Its value is 100.

And the pest or weed control at 16 g/ha ([3]; Eriochloa villosa, post-emergence, Postemergence, 16 g ai/ha, read-out: Plant response rating (scale of 0 to 100), Cupgrass, Woolly)?
The pest or weed control at 16 g/ha was 30%.

What about the pest or weed control at 31 g/ha ([3]; Eriochloa villosa, post-emergence, Postemergence, 31 g ai/ha, read-out: Plant response rating (scale of 0 to 100), Cupgrass, Woolly) of the same compound?
The pest or weed control at 31 g/ha was 60%.

What about the pest or weed control at 62 g/ha ([3]; Eriochloa villosa, post-emergence, Postemergence, 62 g ai/ha, read-out: Plant response rating (scale of 0 to 100), Cupgrass, Woolly) of the same compound?
Its pest or weed control at 62 g/ha is 60%.

What about the pest or weed control at 125 g/ha [3, 14] of the same compound?
Its pest or weed control at 125 g/ha is 80%.

And the pest or weed control at 16 g/ha ([3]; Eriochloa villosa, pre-emergence, Preemergence, 16 g ai/ha, scale 0 to 100, 0 no effect, 100 complete control, read-out: Plant response rating, Cupgrass, Woolly)?
Its pest or weed control at 16 g/ha is 0%.

What about the “Plant response rating, Cupgrass, Woolly” value [3, 10] of the same compound?
The value was 0.

And the “Plant response rating, Cupgrass, Woolly” value [3, 11]?
The value was 0.

What about the “Plant response rating, Cupgrass, Woolly” value [3, 12] of the same compound?
Its value is 0.

What about the pest or weed control at 16 g/ha ([4]; Stellaria media, post-emergence, 16 g ai/ha, read-out: Plant response rating (scale of 0 to 100), Chickweed) of the same compound?
Its pest or weed control at 16 g/ha is 0%.

And the pest or weed control at 31 g/ha ([4]; Stellaria media, post-emergence, 31 g ai/ha, read-out: Plant response rating (scale of 0 to 100), Chickweed)?
Its pest or weed control at 31 g/ha is 15%.

And the pest or weed control at 62 g/ha ([4]; Stellaria media, post-emergence, 62 g ai/ha, read-out: Plant response rating (scale of 0 to 100), Chickweed)?
Its pest or weed control at 62 g/ha is 25%.

And the pest or weed control at 125 g/ha ([4]; Stellaria media, post-emergence, 125 g ai/ha, scale 0 to 100 (0 no effect, 100 complete control), read-out: Chickweed plant response rating)?
Its pest or weed control at 125 g/ha is 85%.

Which pest or weed control at 62 g/ha ([1]; Solanum, pre-emergence, 62 g ai/ha, scale 0 to 100, 0 no effect, 100 complete control, read-out: Plant response rating, Nightshade) does the source give for `CCOC(=O)c1nc(C2CC2)nc(N)c1Br` [Compound 1, ethyl 6-amino-5-bromo-2-cyclopropyl-4-pyrimidinecarboxylate] here?
Its pest or weed control at 62 g/ha is 100%.

What about the pest or weed control at 125 g/ha ([1]; Solanum, pre-emergence, 125 g ai/ha, scale 0 to 100, read-out: Plant response rating, Nightshade) of the same compound?
Its pest or weed control at 125 g/ha is 100%.

And the pest or weed control at 250 g/ha ([1]; Solanum, pre-emergence, 250 g ai/ha, scale 0 to 100, read-out: Plant response rating, Nightshade)?
Its pest or weed control at 250 g/ha is 100%.

And the pest or weed control at 500 g/ha ([1]; Solanum, pre-emergence, 500 g ai/ha, scale 0 to 100, read-out: Plant response rating, Nightshade)?
The pest or weed control at 500 g/ha was 100%.

What about the pest or weed control at 62 g/ha ([2]; Ipomoea, post-emergence, Postemergence, 62 g ai/ha, scale 0 to 100 (0 no effect, 100 complete control), read-out: Morningglory plant response rating) of the same compound?
The pest or weed control at 62 g/ha was 100%.

What about the pest or weed control at 125 g/ha [2, 13] of the same compound?
The pest or weed control at 125 g/ha was 100%.

What about the pest or weed control at 250 g/ha [2, 15] of the same compound?
The pest or weed control at 250 g/ha was 100%.

And the pest or weed control at 500 g/ha [2, 15]?
The pest or weed control at 500 g/ha was 100%.

And the pest or weed control at 62 g/ha ([2]; Ipomoea, pre-emergence, Preemergence, 62 g ai/ha, scale 0 to 100, 0 no effect, 100 complete control, read-out: Plant response rating, Morningglory)?
Its pest or weed control at 62 g/ha is 90%.

What about the pest or weed control at 125 g/ha ([2]; Ipomoea, pre-emergence, Preemergence, 125 g ai/ha, scale 0 to 100, read-out: Plant response rating, Morningglory) of the same compound?
The pest or weed control at 125 g/ha was 100%.

And the pest or weed control at 250 g/ha [2, 16]?
Its pest or weed control at 250 g/ha is 100%.

What about the pest or weed control at 500 g/ha [2, 16] of the same compound?
The pest or weed control at 500 g/ha was 100%.

And the pest or weed control at 62 g/ha ([3]; Eriochloa villosa, post-emergence, Postemergence, 62 g ai/ha, scale 0 to 100 (0 no effect, 100 complete control), read-out: Cupgrass, Woolly plant response rating)?
The pest or weed control at 62 g/ha was 65%.

What about the pest or weed control at 125 g/ha [3, 14] of the same compound?
The pest or weed control at 125 g/ha was 80%.

And the pest or weed control at 250 g/ha [3, 17]?
Its pest or weed control at 250 g/ha is 90%.

And the pest or weed control at 500 g/ha [3, 17]?
Its pest or weed control at 500 g/ha is 90%.

And the pest or weed control at 62 g/ha ([3]; Eriochloa villosa, pre-emergence, Preemergence, 62 g ai/ha, scale 0 to 100, 0 no effect, 100 complete control, read-out: Plant response rating, Cupgrass, Woolly)?
The pest or weed control at 62 g/ha was 0%.

What about the pest or weed control at 125 g/ha ([3]; Eriochloa villosa, pre-emergence, Preemergence, 125 g ai/ha, scale 0 to 100, read-out: Plant response rating, Cupgrass, Woolly) of the same compound?
The pest or weed control at 125 g/ha was 60%.

And the pest or weed control at 250 g/ha [3, 18]?
Its pest or weed control at 250 g/ha is 90%.

And the pest or weed control at 500 g/ha [3, 18]?
Its pest or weed control at 500 g/ha is 95%.

What about the pest or weed control at 62 g/ha ([4]; Stellaria media, post-emergence, 62 g ai/ha, scale 0 to 100 (0 no effect, 100 complete control), read-out: Chickweed plant response rating) of the same compound?
Its pest or weed control at 62 g/ha is 80%.

What about the pest or weed control at 250 g/ha ([4]; Stellaria media, post-emergence, 250 g ai/ha, scale 0 to 100, read-out: Plant response rating, Chickweed) of the same compound?
The pest or weed control at 250 g/ha was 90%.
